Reference: patent publication US12655116B2, “Substituted isophthalic acid diamides” (Bayer Aktiengesellschaft, priority 2020, dated 2026)

How the values were obtained:
MATIN [1] = assay: Post-emergence herbicidal action against MATIN; type: in vivo, Matricaria inodora; details: Tripleurospermum inodorum, 504 h
How it was run: (§1)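 Visual % rating (0% = as untreated, 100% = dead) ~3 wk after spraying one-leaf-stage plants grown in sandy loam; WP/EC in water at 600–800 l/ha, 0.2% wetting agent.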

ABUTH [2] = assay: Pre-emergence herbicidal action against ABUTH; type: in vivo, Abutilon theophrasti; details: Abutilon theophrasti, 504 h; for pest or weed control at 80 g/ha: scored visually after 3 weeks vs untreated controls (100% = plants have died, 0% = like control plants); for pest or weed control at 20 g/ha: dosage 20 g/ha, scored visually after 3 weeks vs untreated controls, 100% = plants have died, 0% = like control plants, read-out: Pre-emergence action against ABUTH (herbicidal activity in percent)
How it was run: (§2)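 Sandy loam pots, seeds covered with soil, then surface-treated with WP or EC formulations at 600–800 l/ha water plus 0.2% wetting agent. Greenhouse, 3 weeks. Percent damage vs untreated controls.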

AVEFA [3] = assay: Post-emergence herbicidal action against AVEFA; type: in vivo, Avena fatua; details: Avena fatua, 504 h, 20 g/ha, visual assessment about 3 weeks after treatment, 100% = plants have died, 0% = like control plants
How it was run: as §1

PHBPU [4] = assay: Pre-emergence herbicidal action against PHBPU; type: in vivo, Pharbitis purpurea; details: Ipomoea purpurea, 504 h; for pest or weed control at 80 g/ha: dosage 80 g/ha
How it was run: as §2

SETVI [5] = assay: Pre-emergence herbicidal action against SETVI; type: in vivo, Setaria viridis; details: Setaria viridis, 504 h, dosage 80 g/ha
How it was run: as §2

LOLRI = assay: Pre-emergence herbicidal action against LOLRI; type: in vivo, Lolium rigidum; details: Lolium rigidum, 504 h, 80 g/ha
How it was run: as §2

ALOMY [6] = assay: Post-emergence herbicidal action against ALOMY; type: in vivo, Alopecurus myosuroides; details: Alopecurus myosuroides, 504 h, dosage 20 g/ha, visual assessment about 3 weeks after treatment vs untreated controls
How it was run: as §1

PHBPU [7] = assay: Post-emergence herbicidal action against PHBPU; type: in vivo, Pharbitis purpurea; details: Ipomoea purpurea, 504 h; for pest or weed control at 5 g/ha: dosage 5 g/ha; for pest or weed control at 20 g/ha: dosage 20 g/ha
How it was run: as §1

DIGSA [8] = assay: Pre-emergence herbicidal action against DIGSA; type: in vivo, Digitaria sanguinalis; details: Digitaria sanguinalis, 504 h; for pest or weed control at 20 g/ha: dosage 20 g/ha; for pest or weed control at 80 g/ha: dosage 80 g/ha
How it was run: as §2

AMARE [9] = assay: Pre-emergence herbicidal action against AMARE; type: in vivo, Amaranthus retroflexus; details: Amaranthus retroflexus, 504 h, scored visually after 3 weeks vs untreated controls, 100% = plants have died, 0% = like control plants
How it was run: as §2

MATIN [10] = assay: Pre-emergence herbicidal action against MATIN; type: in vivo, Matricaria inodora; details: Tripleurospermum inodorum, 504 h; for pest or weed control at 20 g/ha: dosage 20 g/ha; for pest or weed control at 80 g/ha: dosage 80 g/ha
How it was run: as §2

ECHCG [11] = assay: Post-emergence herbicidal action against ECHCG; type: in vivo, Echinochloa crus-galli; details: Echinochloa crus-galli, 504 h
How it was run: as §1

POLCO = assay: Pre-emergence herbicidal action against POLCO; type: in vivo, Polygonum convolvulus; details: Fallopia convolvulus, 504 h; for pest or weed control at 80 g/ha: dosage 80 g/ha
How it was run: as §2

VERPE [12] = assay: Pre-emergence herbicidal action against VERPE; type: in vivo, Veronica persica; details: Veronica persica, 504 h, dosage 80 g/ha
How it was run: as §2

AMARE [13] = assay: Post-emergence herbicidal action against AMARE; type: in vivo, Amaranthus retroflexus; details: Amaranthus retroflexus, 504 h, 20 g/ha, visual assessment about 3 weeks after treatment, 100% = plants have died, 0% = like control plants
How it was run: as §1

AVEFA [14] = assay: Pre-emergence herbicidal action against AVEFA; type: in vivo, Avena fatua; details: Avena fatua, 504 h; 80 g/ha, pre-emergence
How it was run: as §2

ALOMY [15] = assay: Pre-emergence herbicidal action against ALOMY; type: in vivo, Alopecurus myosuroides; details: Alopecurus myosuroides, 504 h, pre-emergence; for pest or weed control at 80 g/ha: scored visually after 3 weeks vs untreated controls (100% = plants have died, 0% = like control plants); for pest or weed control at 20 g/ha: scored visually after 3 weeks, 100% = plants have died, 0% = like control plants
How it was run: as §2

ECHCG [16] = assay: Pre-emergence herbicidal action against ECHCG; type: in vivo, Echinochloa crus-galli; details: Echinochloa crus-galli, 504 h
How it was run: as §2

SETVI [17] = assay: Post-emergence herbicidal action against SETVI; type: in vivo, Setaria viridis; details: Setaria viridis, 504 h, dosage 20 g/ha
How it was run: as §1

VIOTR [18] = assay: Pre-emergence herbicidal action against VIOTR; type: in vivo, Viola tricolor; details: Viola tricolor, 504 h; for pest or weed control at 20 g/ha: dosage 20 g/ha; for pest or weed control at 80 g/ha: dosage 80 g/ha
How it was run: as §2

VIOTR [19] = assay: Post-emergence herbicidal action against VIOTR; type: in vivo, Viola tricolor; details: Viola tricolor, 504 h
How it was run: as §1

VERPE [20] = assay: Post-emergence herbicidal action against VERPE; type: in vivo, Veronica persica; details: Veronica persica, 504 h, 20 g/ha
How it was run: as §1

ABUTH [21] = assay: Post-emergence herbicidal action against ABUTH; type: in vivo, Abutilon theophrasti; details: Abutilon theophrasti, 504 h, visual assessment about 3 weeks after treatment vs untreated controls
How it was run: as §1

DIGSA [22] = assay: Post-emergence herbicidal action against DIGSA; type: in vivo, Digitaria sanguinalis; details: Digitaria sanguinalis, 504 h
How it was run: as §1

Compound | pest or weed control at 80 g/ha (ABUTH [2]) [%] | pest or weed control at 20 g/ha (ABUTH [2]) [%] | pest or weed control at 20 g/ha (AVEFA [3]) [%] | pest or weed control at 80 g/ha (PHBPU [4]) [%] | pest or weed control at 80 g/ha (SETVI [5]) [%] | pest or weed control at 80 g/ha (LOLRI) [%] | pest or weed control at 5 g/ha (PHBPU [7]) [%] | pest or weed control at 20 g/ha (PHBPU [7]) [%] | pest or weed control at 20 g/ha (DIGSA [8]) [%] | pest or weed control at 80 g/ha (DIGSA [8]) [%] | pest or weed control at 20 g/ha (AMARE [9]) [%] | pest or weed control at 80 g/ha (AMARE [9]) [%] | pest or weed control at 20 g/ha (MATIN [10]) [%] | pest or weed control at 80 g/ha (MATIN [10]) [%] | pest or weed control at 80 g/ha (POLCO) [%] | pest or weed control at 80 g/ha (VERPE [12]) [%] | pest or weed control at 20 g/ha (AMARE [13]) [%] | pest or weed control at 80 g/ha (AVEFA [14]) [%] | pest or weed control at 80 g/ha (ALOMY [15]) [%] | pest or weed control at 20 g/ha (ALOMY [15]) [%] | further results
CC(C)NC(=O)c1c(C(F)(F)F)ccc(C(=O)Nc2nnnn2C)c1Cl [Example 1-137] | 100 | 100 | 80 | 90 | 100 | 90 | 80 | 80 | 100 | 100 | 100 | 100 | 100 | 100 | 100 | 90 | 90 | 90 | 90 | 90 | pest or weed control at 5 g/ha (MATIN [1]; dosage 5 g/ha): 80%; pest or weed control at 20 g/ha (MATIN [1]; dosage 20 g/ha): 80%; pest or weed control at 20 g/ha (PHBPU [4]; dosage 20 g/ha): 80%; pest or weed control at 20 g/ha (ALOMY [6]): 90%; pest or weed control at 5 g/ha (ECHCG [11]; dosage 5 g/ha): 90%; pest or weed control at 20 g/ha (ECHCG [11]; dosage 20 g/ha): 90%; pest or weed control at 20 g/ha (POLCO; dosage 20 g/ha): 80%; pest or weed control at 20 g/ha (ECHCG [16]): 80%; pest or weed control at 80 g/ha (ECHCG [16]): 100%; pest or weed control at 20 g/ha (SETVI [17]): 80%; pest or weed control at 20 g/ha (VIOTR [18]): 90%; pest or weed control at 80 g/ha (VIOTR [18]): 100%
Cn1nnnc1NC(=O)c1ccc(C(F)F)c(C(=O)NC2CC2)c1Br [Example 1-227] | 100 | 100 | 80 | 80 | 100 | 90 | 80 | 90 | 100 | 100 | 100 | 100 | 80 | 100 | 90 | 100 | 100 | 90 | 100 | 80 | pest or weed control at 5 g/ha (VIOTR [19]; 5 g/ha): 100%; pest or weed control at 20 g/ha (VIOTR [19]; 20 g/ha): 100%; pest or weed control at 20 g/ha (VERPE [20]): 80%; pest or weed control at 5 g/ha (ABUTH [21]; dosage 5 g/ha): 100%; pest or weed control at 20 g/ha (ABUTH [21]; dosage 20 g/ha): 100%; pest or weed control at 5 g/ha (DIGSA [22]; 5 g/ha): 100%; pest or weed control at 20 g/ha (DIGSA [22]; 20 g/ha): 100%; pest or weed control at 20 g/ha (ECHCG [16]): 80%; pest or weed control at 80 g/ha (ECHCG [16]): 90%; pest or weed control at 20 g/ha (VIOTR [18]): 100%; pest or weed control at 80 g/ha (VIOTR [18]): 100%
